The values that follow come from ChEMBL document CHEMBL1201862, “PubChem BioAssay data set” (2004).

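Dose response: 5 concentrations. Exposure: 48 h. Format: 96-well plates. Endpoint: linear interpolation; highest concentration if not reached. At the GI50, growth is halved.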 Calls of active or inactive are those of the source. Rule as the data show it: active = GI50 up to about 1.1 µM and inactive = higher.

Among the test systems are BT-549; LXFL 529; SNB-78; DMS-273; DLD-1; KM-20L2; DMS-114; HOP-18.
Assay in all cases: NCI-60 cell line screen, 48 h

In the case of `CCOC(=O)/C=C/[C@H](O[Si](c1ccccc1)(c1ccccc1)c1ccccc1)C(C)(C)C`, the GI50 in the assay on BT-549 was > 10 µM (inactive).
Still for that read-out and setting: under `CC(CO)(CO)/N=C/c1cc(I)cc(I)c1O` stands 14 µM (inactive).
With `Cc1cc(NC(=O)NC(=O)c2ccccc2NC(=O)C(C)N)ccc1Oc1ncc(Br)cn1` (stereo not drawn), the GI50 in the assay on BT-549 is 26.8 µM (inactive); in the assay with LXFL 529, 0.396 µM (active); in the assay with SNB-78 it was 0.146 µM (active); with DMS-273, 0.046 µM (active); with DLD-1, 0.331 µM (active); with KM-20L2, 0.0946 µM (active). For the same molecule, in the assay on DMS-114, the GI50 was 1.13 µM (inactive).
For `OCC1OC(Oc2cc(O)cc(/C=C\c3ccc(O)cc3)c2)C(O)C(O)C1O` (stereo not drawn), in the assay with BT-549, the GI50 is > 100 µM (inactive).
Same read-out and setting: under `COc1cc2c(cc1OCCCN1C(=O)c3cccc4cccc(c34)C1=O)N=C[C@@H]1CCCN1C2=O` stands 36.6 µM (inactive).
The same measure, in the same setting: as for `COC(=O)[C@@H]1C=C[C@@H](C#N)n2c(=O)n(-c3ccccc3)c(=O)n21`, the figure is 34 µM (inactive).
On the same count and under the same terms, under `C=C1C[C@H](O)[C@H](Br)C(C)(C)C12CCC(C)(Cl)C(Br)C2` (stereo partly drawn) stands 7.53 µM (inactive).
For `O=C1CCCCCCC2=C1C(Sc1ccccc1)CC2` (stereo not drawn), the GI50 in the assay on LXFL 529 is 35.4 µM (inactive); with SNB-78, > 100 µM (inactive); with DMS-273 it was 26.2 µM (inactive); in the assay with KM-20L2, 41.6 µM (inactive); in the assay with DMS-114, 23.7 µM (inactive); with HOP-18 it was > 100 µM (inactive).
As for `C=C1C(=O)C23C(CC(OC(C)=O)C1[C@@H]2OC(C)=O)C1(C)C(OC(C)=O)CCC(C)(C)C1C[C@@H]3OC(C)=O` (stereo partly drawn), the GI50 is 1.35 µM (inactive) in the assay with LXFL 529; 1.53 µM (inactive) in the assay on SNB-78; 1.68 µM (inactive) with DMS-273; 1.72 µM (inactive) with KM-20L2; 1.14 µM (inactive) with DMS-114.
With `CCN(CC)CC(O)c1ccc2ccc3ccccc3c2c1` (stereo not drawn), in the assay with BT-549, the GI50 is 15.8 µM (inactive).
As to `CCOC(=O)NC(=O)c1cn(C(CC)COC(=O)NCCCCCCNC(=O)OCC(CC)n2cc(C(=O)NC(=O)OCC)c(=O)[nH]c2=O)c(=O)[nH]c1=O` (stereo not drawn), the GI50 with LXFL 529 was > 100 µM (inactive); with SNB-78 it was > 100 µM (inactive); in the assay with DMS-273 it was > 100 µM (inactive); with DLD-1, > 10 µM (inactive); in the assay on KM-20L2, > 100 µM (inactive); in the assay on DMS-114, > 100 µM (inactive). Besides, in the assay on HOP-18, the GI50 was > 100 µM (inactive).
Take `C=C1C(=O)OC2/C=C(\CO)C3OC3C3OC3(C)CC(OC(=O)/C(=C/C)CO)C12` (stereo not drawn): the GI50 in the assay on BT-549 is 45.4 µM (inactive).
As to `C#C[C@]1(O)CCC2C3CCc4cc(Oc5nc(F)nc(-n6c(C)nc7cc8ccccc8cc76)n5)ccc4C3CCC21C` (stereo partly drawn), the GI50 is 41.1 µM (inactive) in the assay on LXFL 529; 75.3 µM (inactive) in the assay with SNB-78; 20.8 µM (inactive) in the assay on DMS-273; 53.3 µM (inactive) with DLD-1; 32.4 µM (inactive) in the assay on KM-20L2; 20.6 µM (inactive) with DMS-114. Also, the GI50 with HOP-18 is 30.6 µM (inactive).
With `COC(=O)C1=NN2c3ccccc3C(=O)OCCC2(C)C1` (stereo not drawn), the GI50 in the assay with BT-549 was > 100 µM (inactive).
`O=C(/C=C/c1ccccc1)Oc1cccc2cccnc12`: the GI50 in the assay on LXFL 529 is 4.06 µM (inactive); in the assay with SNB-78, 21 µM (inactive); with DMS-273, 23 µM (inactive); in the assay on DLD-1, 4.37 µM (inactive); in the assay on KM-20L2 it was 2.2 µM (inactive); in the assay on HOP-18, 25.8 µM (inactive).
In the case of `C/C=C(\N=C=S)C(=O)OC1C(COC(C)=O)OC([C@]2(O)CC(=O)C(N)=C(C(=O)O)C2=O)C(O)C1OC1CC(OC)C(O)([C@@H](C)OC(=O)[C@@H](C)CC)C(C)O1` (stereo partly drawn), the GI50 in the assay with BT-549 is 7.43 µM (inactive); with LXFL 529 it was 2.06 µM (inactive); in the assay on SNB-78, 5.21 µM (inactive); with DMS-273, 16.3 µM (inactive); with DLD-1 it was 10.9 µM (inactive); in the assay on KM-20L2, 6.92 µM (inactive). Moreover, the GI50 is 6.68 µM (inactive) with DMS-114 and 16.8 µM (inactive) in the assay on HOP-18.
On to `COc1ccc(OC)c(-c2nc3n(c2/C=C2/C(=O)Nc4ccccc42)CCS3)c1`, for which the GI50 in the assay with BT-549 is 81.5 µM (inactive).
Still for that read-out and setting: under `O=C1c2cccnc2C(=O)c2c1nc1ccccc1c2-c1cncc(-c2c3c(nc4ccccc24)C(=O)c2cccnc2C3=O)c1` stands 0.502 µM (active); under `CCOC(=O)C(Cc1ccc(N(CCCl)CCCl)cc1)NC(=O)CCCN1C(=O)CN=C(c2ccccc2)c2cc(Cl)ccc21` (stereo not drawn), 41.9 µM (inactive).
On to `C#CCn1c(=O)c(C)cn(/C(=C/C(=O)OCC)C(=O)OCC)c1=O`, for which the GI50 in the assay on BT-549 is 8.11 µM (inactive).
Still for that read-out and setting: under `Cn1c(=S)[nH]c(N)c(Cc2ccccc2)c1=O` stands > 100 µM (inactive).
On to `COC1/C=C\C=C(/C)C(=O)Nc2cc3nc4ccc(Br)cc4oc-3c(c2=O)CC(C)CC(OC)C(O)C(C)/C=C(\C)C1OC(N)=O` (stereo not drawn), for which the GI50 in the assay with BT-549 is 0.00429 µM (active); with LXFL 529, < 0.0147 µM (active); in the assay on SNB-78, 0.998 µM (active); with DMS-273, < 0.0216 µM (active); in the assay with DLD-1 it was 0.0447 µM (active); in the assay with KM-20L2, < 0.0181 µM (active). Besides, the GI50 is 0.0604 µM (active) with DMS-114 and 0.01 µM (active) with HOP-18.
As for `CCc1ccc(/C=C/C(=O)C2CN(CC)CCC2(O)/C=C/c2ccc(CC)cc2)cc1` (stereo not drawn), the GI50 in the assay with BT-549 is 4.68 µM (inactive).
Turning to `CC(=O)c1nc2ccccc2n1C(C)C(=O)c1ccccc1` (stereo not drawn), the GI50 with BT-549 is 52 µM (inactive).
On the same count and under the same terms, under `Nn1c(CCCCCCCCc2nnc(COc3ccc4ccccc4c3O)n2N)nnc1COc1ccc2ccccc2c1O` stands 22.1 µM (inactive).
Consider `c1cnc2c(c1)-n1cccc1C1(CCOCC1)NN2`, for which the GI50 in the assay on LXFL 529, in the assay on DMS-273, in the assay on DLD-1, with KM-20L2, with DMS-114 and in the assay on HOP-18 was > 100 µM (inactive) in each case.
As to `Cc1ccc(S(=O)(=O)NC(=O)NC(C(=O)O)C(C)C)cc1` (stereo not drawn), the GI50 in the assay with BT-549 is > 100 µM (inactive).
`C[C@H](CCC(=O)O)[C@H]1CC[C@H]2[C@@H]3CC[C@@H]4C[C@H](O)CC[C@]4(C)[C@H]3C[C@H](O)[C@]12C` [DEOXYCHOLIC ACID]: the GI50 with BT-549 is 48.4 µM (inactive).
Regarding `CC(=O)OCC1OC(O/C=C(\CN=[N+]=[N-])C(C)=O)C(OC(C)=O)C(OC(C)=O)C1OC(C)=O` (stereo not drawn), the GI50 with BT-549 was 13.4 µM (inactive).
On to `CC1=Nn2c(nnc2-c2ccc(Cl)cc2)NC(C)(C)C1`, for which the GI50 with LXFL 529, in the assay on SNB-78, in the assay on DMS-273, in the assay on DLD-1, in the assay with KM-20L2 and with DMS-114 was > 100 µM (inactive) in each case. Moreover, the GI50 with HOP-18 was > 100 µM (inactive).
For the molecule `O=C(O)c1cc(/N=N/c2ccc([As](=O)(O)O)cc2)ccc1O`, in the assay with BT-549, the GI50 is > 100 µM (inactive).
The same measure, in the same setting: as for `Cn1c2ccc3cc2c(=S)c2cc(ccc21)OCCOCCOCCOCCOCCO3`, the figure is > 10 µM (inactive); as for `N=C(N)NS(=O)(=O)c1ccc(Nc2c3ccccc3nc3c(C(=O)NC(CO)(CO)CO)cccc23)cc1`, 13.4 µM (inactive).
On the same count and under the same terms, as for `NC1=NN(c2ccccc2)C2(c3ccncc3C(=O)O)C1C(N)=NN2c1ccccc1` (stereo not drawn), the figure is > 100 µM (inactive); as for `CC(C)=CC[C@]12CCN[C@H]1N(S(=O)(=O)c1ccccc1)c1ccccc12`, 17.1 µM (inactive); as for `CCOC(=O)c1nc2ccccc2nc1Oc1ccc(C(=O)OC)cc1`, > 100 µM (inactive).
The same measure, in the same setting: as for `CC1=C(C#N)C2C(=C(N)Oc3ccccc32)C(N)=N1` (stereo not drawn), the figure is 32 µM (inactive).
Consider `CC12CO[C@@](C)(CC(S(=O)(=O)c3ccccc3)C1)O2` (stereo partly drawn), for which the GI50 in the assay on LXFL 529, with SNB-78, in the assay on DMS-273, in the assay with DLD-1, in the assay on KM-20L2 and in the assay with DMS-114 was > 100 µM (inactive) each time. Besides, the GI50 in the assay with HOP-18 is > 100 µM (inactive).
For `CCCCNc1nc(SC)nc2[nH]cnc12`, in the assay on BT-549, the GI50 is > 100 µM (inactive).
The same measure, in the same setting: as for `CN(C)c1nncc2[nH]cnc12`, the figure is > 100 µM (inactive); as for `CCOc1c(OC)cc(C2c3cc4c(c(OCC)c3CC3COC(=O)C32)OCO4)cc1OC` (stereo not drawn), 2.7 µM (inactive).
For `O=C(Oc1c(Cl)cc(C2(c3cc(Cl)c(OC(=O)c4ccccc4)c(Cl)c3)CCCCC2)cc1Cl)c1ccccc1`, the GI50 with BT-549 was 14.7 µM (inactive).
For the molecule `CC(C)(C)c1cc(C(O)(C(F)(F)F)C(F)(F)F)c2c(c1)C(C(F)(F)F)(C(F)(F)F)OC(C)(C(C)(C)C)N2` (stereo not drawn), the GI50 in the assay with LXFL 529 was 2.96 µM (inactive); in the assay with SNB-78, 5.87 µM (inactive); with DMS-273, 3.06 µM (inactive); in the assay with DLD-1, 2.85 µM (inactive); with KM-20L2, 3.03 µM (inactive); with DMS-114, 2.74 µM (inactive). Further, the GI50 in the assay on HOP-18 was 2.76 µM (inactive).
`COc1ccc(N2C(=O)CC(c3c[nH]c4ccccc34)C2=O)cc1` (stereo not drawn): in the assay on BT-549, the GI50 was > 100 µM (inactive).
In the case of `CN1C(=O)CC2(C)c3cc(O)cc(Br)c3N(C)C12` (stereo not drawn), the GI50 in the assay on LXFL 529 is > 100 µM (inactive); with SNB-78, > 100 µM (inactive); in the assay with KM-20L2, > 100 µM (inactive); in the assay on DMS-114, > 100 µM (inactive); in the assay on HOP-18, 31.6 µM (inactive).
Consider `COc1cc(/C=C2\N=C(c3ccccc3)N(c3nc4ccc(Sc5ccccc5)cc4[nH]3)C2=O)ccc1O`, for which the GI50 with BT-549 is 20 µM (inactive).
Still for that read-out and setting: as for `Oc1cc(-c2ccc(F)cc2)nc2ncc(Cl)cc12`, the figure is > 100 µM (inactive).
Take `Cc1ccc(NC(=O)C2C(=O)N(c3ccc(C)cc3)C(=O)/C2=N\NC(N)=S)cc1` (stereo not drawn): the GI50 in the assay on LXFL 529, with SNB-78, in the assay on DMS-273, in the assay on KM-20L2, in the assay with DMS-114 and with HOP-18 was > 100 µM (inactive) each time.
Take `CCCCCCCCCCCCC(Br)C(=O)SCCNC(=O)CCNC(=O)[C@@H](O)C(C)(C)COP(=O)(O)OP(=O)(O)OCC1OC(n2cnc3c(N)ncnc32)C(O)C1OP(=O)(O)O` (stereo partly drawn): the GI50 in the assay with LXFL 529, in the assay with SNB-78, in the assay on DMS-273, with DLD-1, in the assay with KM-20L2 and in the assay on DMS-114 was > 56.5 µM (inactive) in each case. In the assay on HOP-18, the GI50 is > 56.5 µM (inactive).
